Values quoted from earlier work in patent US4996231A, “Triyne cyclic carbonates” (Merck & Co., Inc., priority 1989, dated 1991).

Legend:
[1] = tested on: certain bacterial strains
[2] = tested on: certain fungal strains
[3] = tested on: cytosolic β-ketothiolase; conditions: initial enzyme of cholesterol biosynthesis

C#CC#CC#CC(O)C1OC(=O)OC1CCCCCCC(=O)O (stereo not shown) [triyne carbonate A, 5-(1-hydroxy-2,4,6-heptatriynyl)-2-oxo-1,3 dioxolane 4heptanoic acid]
instability of the compound in vivo: relative instability
active against certain bacterial strains [1]: active against certain fungal and bacterial strains
active against certain fungal strains [2]: active against certain fungal and bacterial strains
inhibitor of cytosolic β-ketothiolase [3]: potent inhibitor
